These results are taken from ChEMBL document CHEMBL1781922, “Synthesis, biological evaluation, and molecular docking study of 3-(3'-heteroatom substituted-2'-hydroxy-1'-propyloxy) xanthone analogues as novel topoisomerase IIα catalytic inhibitor” (Eur J Med Chem, 2011).

Test [1] addresses T1, DNA topoisomerase 1 (Homo sapiens) (UniProt P11387).
T1 sequence (whole entry): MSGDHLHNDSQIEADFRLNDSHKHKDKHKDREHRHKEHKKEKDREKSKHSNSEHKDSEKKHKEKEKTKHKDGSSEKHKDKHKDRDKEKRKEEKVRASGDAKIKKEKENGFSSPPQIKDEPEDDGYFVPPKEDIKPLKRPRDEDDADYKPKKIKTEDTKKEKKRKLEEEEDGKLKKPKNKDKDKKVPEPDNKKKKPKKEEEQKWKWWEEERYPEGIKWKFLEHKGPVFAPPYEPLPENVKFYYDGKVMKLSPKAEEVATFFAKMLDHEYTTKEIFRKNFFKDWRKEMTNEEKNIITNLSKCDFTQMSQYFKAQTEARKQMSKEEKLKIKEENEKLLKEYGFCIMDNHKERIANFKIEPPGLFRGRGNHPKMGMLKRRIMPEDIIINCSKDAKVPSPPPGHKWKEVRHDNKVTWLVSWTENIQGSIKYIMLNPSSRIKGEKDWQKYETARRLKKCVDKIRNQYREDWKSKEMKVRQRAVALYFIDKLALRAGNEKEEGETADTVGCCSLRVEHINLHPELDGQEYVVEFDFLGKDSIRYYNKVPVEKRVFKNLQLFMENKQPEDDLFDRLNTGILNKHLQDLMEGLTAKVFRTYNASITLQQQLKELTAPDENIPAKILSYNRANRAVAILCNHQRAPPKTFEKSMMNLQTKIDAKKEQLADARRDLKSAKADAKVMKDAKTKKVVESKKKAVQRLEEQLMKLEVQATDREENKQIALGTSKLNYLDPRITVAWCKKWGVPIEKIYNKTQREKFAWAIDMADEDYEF
The experiment in a line: Inhibition of human recombinant topoisomerase 1-mediated relaxation of supercoiled pBR322 DNA at 20 uM after 30 mins using ethidium bromide staining by transillumination analysis.

In test [2] the target is DNA topoisomerase 2-alpha (Homo sapiens) (UniProt P11388). In words: Inhibition of human topoisomerase 2alpha-mediated relaxation of supercoiled pBR322 DNA at 10 uM after 30 mins using ethidium bromide staining by transillumination analysis.
Test [3] shares this target. In words: Inhibition of human topoisomerase 2alpha-mediated relaxation of supercoiled pBR322 DNA at 20 uM after 30 mins using ethidium bromide staining by transillumination analysis.
The target is the same in test [4]. In words: Inhibition of human topoisomerase 2alpha-mediated relaxation of supercoiled pBR322 DNA at 100 uM after 30 mins using ethidium bromide staining by transillumination analysis.
The test system of test [5] is HeLa. In words: Cytotoxicity against human HeLa cells after 2 days. To be noted: 48 h.
Test [6] deals with HCT-116. In words: Cytotoxicity against human HCT116 cells after 2 days. The class given is functional, cell-based. As to conditions: HCT-116, 48 h.
Test [7] relates to DU-145. The experiment in a line: Cytotoxicity against human DU145 cells after 2 days. The class given is functional, cell-based. To be noted: DU-145, 48 h.
Test [8] deals with MDA-MB-231. The experiment in a line: Cytotoxicity against human MDA-MB-231 cells after 2 days. As to conditions: MDA-MB-231, 48 h.
Test [9] relates to HL-60. In words: Cytotoxicity against human HL60 cells after 2 days. It counts as functional, cell-based. As to conditions: HL-60, 48 h.
The target in test [10] is DNA topoisomerase 2-alpha (Homo sapiens) (UniProt P11388). In words: Inhibition of human topoisomerase 2alpha-mediated ATP hydrolysis at 400 uM after 30 mins by malachite green ATPase assay.
Test [11] has the same target. In words: Inhibition of human topoisomerase 2alpha-mediated relaxation of pUC18 DNA at 400 uM after 30 mins by malachite green ATPase assay in presence of 1 to 4 mM of ATP.

Structures are written as SMILES. Counter-ions that a name gives are not always drawn. Active and inactive are the calls of the source. The rule behind the calls is not given here. Where only a bound is given, the exact number is not on record here.

Chain of DNA topoisomerase 2-alpha (Homo sapiens) (P11388 whole entry): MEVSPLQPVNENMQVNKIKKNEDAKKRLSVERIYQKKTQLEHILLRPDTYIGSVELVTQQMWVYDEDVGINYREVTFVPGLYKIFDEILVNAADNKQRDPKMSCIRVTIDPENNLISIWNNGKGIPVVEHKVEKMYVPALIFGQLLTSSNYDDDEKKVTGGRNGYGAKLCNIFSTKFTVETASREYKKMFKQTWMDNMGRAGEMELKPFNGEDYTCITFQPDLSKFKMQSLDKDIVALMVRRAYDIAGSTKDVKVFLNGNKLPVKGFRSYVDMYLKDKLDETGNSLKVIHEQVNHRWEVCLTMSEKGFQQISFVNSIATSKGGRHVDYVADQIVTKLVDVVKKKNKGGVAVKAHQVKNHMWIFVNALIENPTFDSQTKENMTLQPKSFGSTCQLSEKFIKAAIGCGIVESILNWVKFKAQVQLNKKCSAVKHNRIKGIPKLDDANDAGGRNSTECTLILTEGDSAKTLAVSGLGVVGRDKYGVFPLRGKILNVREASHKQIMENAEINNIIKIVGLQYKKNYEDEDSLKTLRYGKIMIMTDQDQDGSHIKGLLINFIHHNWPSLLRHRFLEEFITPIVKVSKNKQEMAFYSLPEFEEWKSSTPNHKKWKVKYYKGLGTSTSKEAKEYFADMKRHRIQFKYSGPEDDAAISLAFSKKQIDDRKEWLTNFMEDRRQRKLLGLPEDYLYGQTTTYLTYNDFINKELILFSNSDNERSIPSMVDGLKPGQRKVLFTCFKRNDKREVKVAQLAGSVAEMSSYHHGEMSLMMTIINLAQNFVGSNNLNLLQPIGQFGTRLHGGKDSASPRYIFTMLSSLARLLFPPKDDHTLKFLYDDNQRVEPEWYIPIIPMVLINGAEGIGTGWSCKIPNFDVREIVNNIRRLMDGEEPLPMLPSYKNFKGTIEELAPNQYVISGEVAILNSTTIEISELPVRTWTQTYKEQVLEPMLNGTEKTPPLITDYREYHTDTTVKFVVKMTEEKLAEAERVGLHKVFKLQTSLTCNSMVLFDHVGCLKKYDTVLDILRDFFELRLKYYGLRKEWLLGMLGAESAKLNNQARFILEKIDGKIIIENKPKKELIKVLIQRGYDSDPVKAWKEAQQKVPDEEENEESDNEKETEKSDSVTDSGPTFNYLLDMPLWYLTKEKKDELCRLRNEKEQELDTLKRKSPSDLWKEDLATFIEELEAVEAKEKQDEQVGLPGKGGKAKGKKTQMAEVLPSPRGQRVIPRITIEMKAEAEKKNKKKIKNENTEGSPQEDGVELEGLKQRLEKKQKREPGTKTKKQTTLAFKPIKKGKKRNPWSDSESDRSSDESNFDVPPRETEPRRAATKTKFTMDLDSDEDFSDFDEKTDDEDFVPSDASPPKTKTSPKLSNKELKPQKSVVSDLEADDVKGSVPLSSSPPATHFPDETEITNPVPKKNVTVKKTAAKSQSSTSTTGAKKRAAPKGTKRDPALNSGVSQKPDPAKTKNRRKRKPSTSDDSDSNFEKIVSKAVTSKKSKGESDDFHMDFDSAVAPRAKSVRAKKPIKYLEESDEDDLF

In general, inhibition refers to the change of the read-out against control, counted positive when it falls. In general, IC50 refers to the midpoint of a concentration-inhibition curve. In the case of `O=c1c2ccccc2oc2cc(OCC(O)COCCO)cc(O)c12` (centres undefined), the inhibition is 0% in test [1], 23.4% in test [2], 43.7% in test [3] and 89.2% in test [4]. Also, the concentration for half-maximal inhibition (IC50) came to 15.4 µM in test [5]; 46.7 µM in test [6]; 15.6 µM in test [7]; 10.4 µM in [8]; 16.6 µM in test [9].
Regarding `O=c1c2ccccc2oc2cc(OCC(O)CN(CCO)CCO)cc(O)c12` (centres undefined), the inhibition in test [1] was 0%; in [2], 17.4%; in test [3], 45.8%; in test [4], 100%. Besides, the half-inhibitory concentration (IC50) in [5] was 15.2 µM; in test [6], 56.7 µM; in [7], 1.59 µM; in [8] it was 14.9 µM; in test [9], 15.9 µM.
`O=c1c2ccccc2oc2cc(OCC(O)CNCCO)cc(O)c12` (centres undefined): the inhibition in [1] came out at 1.08%; in [2] it was 35.5%; in test [3], 70.3%; in test [4], 100%. Further, the IC50 in test [5] is 8.43 µM; in [6] it was 20 µM; in test [7] it was 4.03 µM; in test [8], 3.55 µM; in [9], 9.87 µM.
As for `O=c1c2ccccc2oc2cc(OCC(O)CNCCCO)cc(O)c12` (centres undefined), the inhibition was found to be 3.45% in [1], 38.7% in test [2], 62.8% in [3] and 100% in test [4]. The IC50 stood at 19.2 µM in test [5]; 31.3 µM in test [6]; 1.6 µM in test [7]; 6.97 µM in [8]; 8.87 µM in [9].
On to `O=c1c2ccccc2oc2cc(OCC(O)CSCCCO)cc(O)c12` (centres undefined), for which the inhibition worked out at 0% in test [1], 17.5% in test [2], 26.1% in [3] and 68% in [4]. Also, the IC50 in [5] is 12.3 µM; in test [6], more than 100 µM; in test [7], 40.9 µM; in test [8], 8.4 µM; in test [9], 27.8 µM.
Take `CO[C@@H]1[C@@H](OC(N)=O)[C@@H](O)[C@H](Oc2ccc3c(O)c(NC(=O)c4ccc(O)c(CC=C(C)C)c4)c(=O)oc3c2C)OC1(C)C`: in test [10], the inhibition was 60.4%.
Turning to `CC[C@@]1(O)C(=O)OCc2c1cc1n(c2=O)Cc2cc3ccccc3nc2-1` [CAMPTOTHECIN], the IC50 in test [6] was determined as 3.97 µM; in test [7], 0.31 µM; in [8], 0.97 µM.
`COc1cccc2c1C(=O)c1c(O)c3c(c(O)c1C2=O)C[C@@](O)(C(=O)CO)C[C@@H]3O[C@H]1C[C@H](N)[C@H](O)[C@H](C)O1` [DOXORUBICIN HYDROCHLORIDE]: the IC50 in test [6] came to 6.81 µM; in test [7], 2.47 µM; in test [9], 0.32 µM.
With `CCCNCC(O)COc1cc(O)c2c(=O)c3ccccc3oc2c1` (centres undefined), the inhibition was 0% in [1]; 41.2% in test [2]; 70% in test [3]; 100% in [4]; 28.5% in [10]. Also, the IC50 is 11.6 µM in [5]; 23.7 µM in test [6]; 0.76 µM in test [7]; 4.11 µM in test [8]; 4.15 µM in test [9]. Further, in test [11], the inhibition entry is “inactive”.
For the compound `O=c1c2ccccc2oc2cc(OCC(O)CSCCO)cc(O)c12` (centres undefined), the inhibition in [1] stood at 0%; in test [2], 26.3%; in [3], 49.1%; in test [4], 63.8%. For the same compound, the IC50 in test [5] is 9.15 µM; in test [6], 23.9 µM; in test [7] it was 3.47 µM; in test [8], 5.13 µM; in test [9] it was 19.9 µM.
Turning to `COc1cc([C@@H]2c3cc4c(cc3[C@@H](O[C@@H]3O[C@@H]5CO[C@@H](C)O[C@H]5[C@H](O)[C@H]3O)[C@H]3COC(=O)[C@H]23)OCO4)cc(OC)c1O` [ETOPOSIDE], the inhibition in test [2] worked out at 26%; in test [4], 77.1%. The IC50 in test [5] was 2.36 µM; in test [6], 9.5 µM; in test [7] it was 2.19 µM; in [8] it was 1.23 µM; in [9], 1.28 µM.
